Target: SIRT6 enzyme (Homo sapiens, UniProt Q8N6T7)
Assay: Measurement of deacetylation activity (SIRT6, AlphaLISA, H3K9(Ac) peptide)
Type: biochemical
Settings: SIRT6 25 ng/mL, H3K9(Ac) biotin peptide 2 nM, NAD 10 μM, room temperature 30 minutes, duplicate
Procedure, shortened: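 Activation read as EC150, the concentration giving 150% activity relative to enzyme/no-enzyme DMSO controls, via variable-slope fit. Deacetylation of 2 nM biotinylated H3K9(Ac) peptide with 10 μM NAD+ by 25 ng/mL SIRT6 ran 30 min at room temperature, pH 8.0, then AlphaLISA detection of unmodified H3K9.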

Chain of SIRT6 enzyme (Q8N6T7 whole entry, species assumed): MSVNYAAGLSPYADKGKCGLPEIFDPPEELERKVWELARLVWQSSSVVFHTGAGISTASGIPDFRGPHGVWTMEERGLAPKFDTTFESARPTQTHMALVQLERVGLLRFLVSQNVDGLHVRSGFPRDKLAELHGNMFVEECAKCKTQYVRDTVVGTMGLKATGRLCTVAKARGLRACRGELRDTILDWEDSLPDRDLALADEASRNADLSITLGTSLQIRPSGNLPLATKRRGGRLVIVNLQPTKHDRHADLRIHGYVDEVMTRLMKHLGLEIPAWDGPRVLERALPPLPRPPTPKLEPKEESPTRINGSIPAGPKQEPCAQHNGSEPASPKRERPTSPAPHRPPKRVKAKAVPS

Going from `C[C@H](CO)NC(=O)Nc1nc2c(s1)[C@@H]1COC[C@H](C2)N1c1ncc(-c2cccc(OC(F)F)c2)o1` [Example 70, N-[(4S,8S)-10-{5-[3-(difluoromethoxy)phenyl]-1,3-oxazol-2-yl}-4,7,8,9-tetrahydro-5H-4,8-epiminooxocino[5,4-d][1,3]thiazol-2-yl]-N′-[(2R)-1-hydroxypropan-2-yl]urea] to `CC(C)(O)CNC(=O)Nc1nc2c(s1)[C@@H]1COC[C@H](C2)N1c1ncc(-c2cccc(OC(F)F)c2)o1` [Example 172, N-[(4S,8S)-10-{5-[3-(difluoromethoxy)phenyl]-1,3-oxazol-2-yl}-4,7,8,9-tetrahydro-5H-4,8-epiminooxocino[5,4-d][1,3]thiazol-2-yl]-N′-(2-hydroxy-2-methylpropyl)urea], the “EC150 (the concentration of the compound showing a relative enzyme activity of 150%)” value rises from 0.45 μm to 0.83 μm.

First: O=C(NCC1(O)CC1)Nc1nc2c(s1)CN(c1nc(C3CCC(F)(F)CC3)no1)CC2 [Example 104, N-{5-[3-(4,4-difluorocyclohexyl)-1,2,4-oxadiazol-5-yl]-4,5,6,7-tetrahydro[1,3]thiazolo[5,4-c]pyridin-2-yl}-N′-[(1-hydroxycyclopropyl)methyl]urea]
Second: O=C(NCc1cncnc1)Nc1nc2c(s1)CN(c1nc(C3CCC(F)(F)CC3)no1)CC2 [Example 99, N-{5-[3-(4,4-difluorocyclohexyl)-1,2,4-oxadiazol-5-yl]-4,5,6,7-tetrahydro[1,3]thiazolo[5,4-c]pyridin-2-yl}-N′-[(pyrimidin-5-yl)methyl]urea]
The “EC150 (the concentration of the compound showing a relative enzyme activity of 150%)” value of the first is higher: 1.6 μm for the first, 1.1 μm for the second.

Going from `CC(=O)N1CC[C@@H](NC(=O)Nc2nc3c(s2)[C@@H]2COC[C@H](C3)N2c2ncc(-c3cccc(OC(F)F)n3)o2)C1` [Example 182, N-[(3R)-1-acetylpyrrolidin-3-yl]-N′-[(4S,8S)-10-{5-[6-(difluoromethoxy)pyridin-2-yl]-1,3-oxazol-2-yl}-4,7,8,9-tetrahydro-5H-4,8-epiminooxocino[5,4-d][1,3]thiazol-2-yl]urea] to `COc1cccc(-c2cnc(N3[C@@H]4COC[C@H]3c3sc(NC(=O)N[C@H]5C[C@H](O)C5)nc3C4)o2)n1` [Example 78, N-[(1r,3S)-3-hydroxycyclobutyl]-N′-{(4S,8S)-10-[5-(6-methoxypyridin-2-yl)-1,3-oxazol-2-yl]-4,7,8,9-tetrahydro-5H-4,8-epiminooxocino[5,4-d][1,3]thiazol-2-yl}urea], the “EC150 (the concentration of the compound showing a relative enzyme activity of 150%)” value rises from 0.16 μm to 0.41 μm.

Going from `CNC(=O)Nc1nc2c(s1)C1CN(C(C)=O)CC(C2)N1c1ncc(-c2cccc(OC)n2)o1` (centres unmarked) [Example 126, N-{6-acetyl-10-[5-(6-methoxypyridin-2-yl)-1,3-oxazol-2-yl]-4,5,6,7,8,9-hexahydro-4,8-epimino[1,3]thiazolo[5,4-d]azocin-2-yl}-N′-methylurea] to `CNC(=O)Nc1nc2c(s1)[C@@H]1COC[C@H](C2)N1c1ncc(-c2cccc(OC)n2)o1` [Example 15, N-{(4S,8S)-10-[5-(6-methoxypyridin-2-yl)-1,3-oxazol-2-yl]-4,7,8,9-tetrahydro-5H-4,8-epiminooxocino[5,4-d][1,3]thiazol-2-yl}-N′-methylurea], the “EC150 (the concentration of the compound showing a relative enzyme activity of 150%)” value rises from 1 μm to 1.1 μm.

Compared with `COc1ccc(-c2noc(N3CCc4nc(NC(=O)NC5CCOCC5)sc4C3)n2)cc1` [Example 107, N-{5-[3-(4-methoxyphenyl)-1,2,4-oxadiazol-5-yl]-4,5,6,7-tetrahydro[1,3]thiazolo[5,4-c]pyridin-2-yl}-N′-oxan-4-ylurea], `O=C(Nc1nc2c(s1)CN(c1nccc(C3CCCOC3)n1)CC2)N[C@H]1C[C@H](O)C1` (some centres unmarked) [Example 192, N-[(1r,3r)-3-hydroxycyclobutyl]-N′-{5-[4-(oxan-3-yl)pyrimidin-2-yl]-4,5,6,7-tetrahydro[1,3]thiazolo[5,4-c]pyridin-2-yl}urea] is lower in “EC150 (the concentration of the compound showing a relative enzyme activity of 150%)” value: 2.3 μm for the first, 0.44 μm for the second.

First: C[C@H](CO)NC(=O)Nc1nc2c(s1)[C@@H]1COC[C@H](C2)N1c1nc2cc(C(F)F)ccc2o1 [Example 56, N-{(4S,8S)-10-[5-(difluoromethyl)-1,3-benzoxazol-2-yl]-4,7,8,9-tetrahydro-5H-4,8-epiminooxocino[5,4-d][1,3]thiazol-2-yl}-N′-[(2R)-1-hydroxypropan-2-yl]urea]
Second: CC(C)CNC(=O)Nc1nc2c(s1)[C@@H]1COC[C@H](C2)N1c1nc2cc(S(C)(=O)=O)ccc2o1 [Example 43, N-{(4S,8S)-10-[5-(methanesulfonyl)-1,3-benzoxazol-2-yl]-4,7,8,9-tetrahydro-5H-4,8-epiminooxocino[5,4-d][1,3]thiazol-2-yl}-N′-(2-methylpropyl)urea]
The “EC150 (the concentration of the compound showing a relative enzyme activity of 150%)” value of the first is lower: 0.19 μm for the first, 1.5 μm for the second.

Going from `C[C@@H](O)CNC(=O)Nc1nc2c(s1)CN(c1cc(C3CCC(F)(F)CC3)on1)CC2` [Example 153, N-{5-[5-(4,4-difluorocyclohexyl)-1,2-oxazol-3-yl]-4,5,6,7-tetrahydro[1,3]thiazolo[5,4-c]pyridin-2-yl}-N′-[(2R)-2-hydroxypropyl]urea] to `CNC(=O)Nc1nc2c(s1)CN(c1nc(C(C)OCC(F)(F)F)no1)CC2` (centres unmarked) [Example 4, N-methyl-N′-(5-{3-[1-(2,2,2-trifluoroethoxy)ethyl]-1,2,4-oxadiazol-5-yl}-4,5,6,7-tetrahydro[1,3]thiazolo[5,4-c]pyridin-2-yl)urea], the “EC150 (the concentration of the compound showing a relative enzyme activity of 150%)” value falls from 2.1 μm to 1.2 μm.

Going from `CNC(=O)Nc1nc2c(s1)C1COCC(C2)N1c1nc([C@H]2CC[C@@H](C(F)(F)F)CC2)no1` (some centres unmarked) [Example 6, N-methyl-N′-(10-{3-[(1s,4s)-4-(trifluoromethyl)cyclohexyl]-1,2,4-oxadiazol-5-yl}-4,7,8,9-tetrahydro-5H-4,8-epiminooxocino[5,4-d][1,3]thiazol-2-yl)urea] to `CNC(=O)Nc1nc2c(s1)C1CN(C(=O)OC)CC(C2)N1c1nc(C2CCC(F)(F)CC2)no1` (centres unmarked) [Example 132, Methyl 10-[3-(4,4-difluorocyclohexyl)-1,2,4-oxadiazol-5-yl]-2-[(methylcarbamoyl)amino]-4,7,8,9-tetrahydro-4,8-epimino[1,3]thiazolo[5,4-d]azocine-6(5H)-carboxylate], the “EC150 (the concentration of the compound showing a relative enzyme activity of 150%)” value falls from 4.5 μm to 0.39 μm.

Compared with `CC(OCC(F)(F)F)c1noc(N2CCc3nc(NC(=O)N[C@H](C)CO)sc3C2)n1` (stereo partly drawn) [Example 89, N-[(2R)-1-hydroxypropan-2-yl]-N′-(5-{3-[1-(2,2,2-trifluoroethoxy)ethyl]-1,2,4-oxadiazol-5-yl}-4,5,6,7-tetrahydro[1,3]thiazolo[5,4-c]pyridin-2-yl)urea], `CNC(=O)Nc1nc2c(s1)CN(c1nnc(C(F)(F)F)o1)CC2` [Example 2, N-methyl-N′-{5-[5-(trifluoromethyl)-1,3,4-oxadiazol-2-yl]-4,5,6,7-tetrahydro[1,3]thiazolo[5,4-c]pyridin-2-yl}urea] is lower in “EC150 (the concentration of the compound showing a relative enzyme activity of 150%)” value: 2.9 μm for the first, 1.6 μm for the second.

Compared with `C[C@H](CO)NC(=O)Nc1nc2c(s1)C1COCC(C2)N1c1nc(-c2ccc(F)cc2)no1` (stereo partly drawn) [Example 18, N-{10-[3-(4-fluorophenyl)-1,2,4-oxadiazol-5-yl]-4,7,8,9-tetrahydro-5H-4,8-epiminooxocino[5,4-d][1,3]thiazol-2-yl}-N′-[(2R)-1-hydroxypropan-2-yl]urea], `C[C@H](O)CNC(=O)Nc1nc2c(s1)C1COCC(C2)N1c1nc(-c2ccc(F)cc2)no1` (stereo partly drawn) [Example 81, N-{10-[3-(4-fluorophenyl)-1,2,4-oxadiazol-5-yl]-4,7,8,9-tetrahydro-5H-4,8-epiminooxocino[5,4-d][1,3]thiazol-2-yl}-N′-[(2S)-2-hydroxypropyl]urea] is higher in “EC150 (the concentration of the compound showing a relative enzyme activity of 150%)” value: 0.95 μm for the first, 1.4 μm for the second.

Compared with `O=C(Nc1nc2c(s1)[C@@H]1COC[C@H](C2)N1c1cc(-c2ccc(F)cc2)on1)N[C@H]1C[C@@H](O)C1` [Example 158, N-{(4S,8S)-10-[5-(4-fluorophenyl)-1,2-oxazol-3-yl]-4,7,8,9-tetrahydro-5H-4,8-epiminooxocino[5,4-d][1,3]thiazol-2-yl}-N′-[(1s,3R)-3-hydroxycyclobutyl]urea], `CC(C)(O)CNC(=O)Nc1nc2c(s1)[C@@H]1COC[C@H](C2)N1c1nc2cc(C#N)c(F)cc2o1` [Example 55, N-[(4S,8S)-10-(5-cyano-6-fluoro-1,3-benzoxazol-2-yl)-4,7,8,9-tetrahydro-5H-4,8-epiminooxocino[5,4-d][1,3]thiazol-2-yl]-N′-(2-hydroxy-2-methylpropyl)urea] is higher in “EC150 (the concentration of the compound showing a relative enzyme activity of 150%)” value: 1.1 μm for the first, 2.3 μm for the second.

With `CNC(=O)Nc1nc2c(s1)C1CN(C(=O)OC)CC(C2)N1c1nc(-c2ccc(F)cn2)no1` (centres unmarked) [Example 142, Methyl 10-[3-(5-fluoropyridin-2-yl)-1,2,4-oxadiazol-5-yl]-2-[(methylcarbamoyl)amino]-4,7,8,9-tetrahydro-4,8-epimino[1,3]thiazolo[5,4-d]azocine-6(5H)-carboxylate] the “EC150 (the concentration of the compound showing a relative enzyme activity of 150%)” value was 3.3 μm.

Reference: patent publication US11981686B2, “Urea compound having substituent” (DAIICHI SANKYO COMPANY, LIMITED, priority 2019, dated 2024)
